Assay results published in US20050165225A1, “Novel cytokine isolated from an insect” (priority 2003, published 2005).
Where no end group is shown, it is not given here.

Key:
[1] = system: hemocytes of a fly (Lucilia cuprina); assay: Hemocyte aggregation assay; format: cell-based; conditions: 10 nM test substance, incubated for about 20 minutes, L. cuprina larval hemocytes, microscopy (FIG. 2)
Protocol: Preparation of Hemolymph for Use in Functional Analysis
Blood (hemolymph) was taken from the 3rd instar flies (Lucilia cuprina) after 24 to 36 hours from molting in an anti-coagulant solution (98 mM NaOH, 186 mM NaCl, 17 mM Na2 EDTA and 41 mM citric acid, pH 4.5). Hemolymph was obtained as sediment by centrifuging at 400 g for one minute, suspended in the anti-coagulation solution, incubated at 4° C. for 30 minutes, and subjected to centrifugal separation at 400 g for one minute to collect hemolymph. The hemolymph thus collected was resuspended in Ex-cell 400 medium (manufactured by JRH bioscience, USA)
Using hemolymph prepared above, an ability of a peptide according to the present invention for aggregating hemocytes was evaluated. 5 μl of a test substance (so as to obtain a final concentration of 10 nM) and 30 μl of a blood cell suspension solution were delivered to 96 wells of a culture plate so as to obtain a cell concentration of 1×10^4 cells/well. As the test substance, a peptide according to the present invention (a final concentration of 10 nM) or bovine serum albumin (a final concentration of 10 nM) as a control was used. The mixture was observed by an inverted phase-contrast microscope (Olympus IX-70) to detect hemocyte aggregation.

[2] = system: High five cells; assay: Cell proliferation assay ([3H] thymidine incorporation); format: cell-based, Trichoplusia ni; conditions: serum-free Grace's medium, test substance ~1,000 nM, cultured 32 hours (FIG. 3)
Protocol: Cultured insect cells of “High five” was purchased from Invitrogen (Holland) and maintained in Grace's medium containing 5% fetus bovine serum. The cells during the exponential growth period were used in the following treatment. After the cells were cultured in a culture solution containing only Grace's medium (with no fetus bovine serum) for 2 days, they were divided into two groups. To one group (novel cytokine group), a peptide according to the present invention was added as a test substance in an amount of ˜1,000 nM. To the other group (control group), bovine serum albumin (BSA) was added as a test substance in an amount of ˜1000 nM. Both groups were cultured for 32 hours in Grace's medium containing 0.5 μCi of [^3H] thymidine. Subsequently, Both groups of cells were washed three times with a phosphate buffered saline (8 mM Na2HPO4, 1.5 mM KH2PO4, 137 mM NaCl, 2.7 mM KCL, pH 7.2). Thereafter, 100 μl of 0.3 N NaOH was added to both groups of cells to lyse the cells. The lysed cells were subjected to the liquid scintillation counter (Aloka LSC-5100 manufactured by Aloka, Japan). In this way, the radioactive count of [^3H] thymidine, which had been incorporated in the cells of each group during culturing, was determined.

| Substance | hemocyte aggregation [1] | [^3H] thymidine incorporation [2] |
| --- | --- | --- |
| TILSAPSNCQQTDFKGRCL (cysteine pairing not given here) [19-residue peptide cytokine purified from hemolymph of Lucilia cuprina larvae] | hemocyte aggregation is observed | increased in a pepetide-concentration dependent manner |
| bovine serum albumin (BSA): bovine serum albumin used as a control test substance | scattered without causing aggregation | not increased |
